Literature values as cited in patent US11198893B2, “Method for producing omega 3 and omega 6 unsaturated fatty acid oxides” (Bizen Chemical Co., Ltd., priority 2016, dated 2021).

Compound	glucose tolerance and insulin resistance (obese mice)	inflammatory cytokine expression (obese mice)	glycometabolism (liver glucose synthesis)	liver glucose synthesis (liver glucose synthesis)
CC/C=C\C[C@H](O)/C=C/C=C\C/C=C\C/C=C\C/C=C\CCC(=O)O [17S-HDHA]	improve glucose tolerance and insulin resistance	suppresses inflammatory cytokine expression		
CC/C=C\C[C@H](O)/C=C/C=C\C=C\[C@@H](O)C/C=C\C/C=C\CCC(=O)O [protectin DX]			action to promote glycometabolism	action to suppress liver glucose synthesis
